Laboratory results as given in ChEMBL document CHEMBL4765389, “Antimicrobial and anti-inflammatory activities of short dodecapeptides derived from duck cathelicidin: Plausible mechanism of bactericidal action and endotoxin neutralization” (Eur J Med Chem, 2020).

Test system: Lipopolysaccharide (LPS)
Assay: Displacement of BODIPY-TR cadaverine from Escherichia coli O111:B4 LPS measured for 100 sec by spectrofluorometry

Substance: H-LWKKIYRKWKRW-NH2
- Activity: Dose-dependent effect
